Where “and” joins values, the source holds several entries; their conditions need not be identical. Equal values may be shown once.
Tested on: DMS 114 tumor spheroids, viability % test/control
Assay: Anticancer human tumor DMS 114 cell line growth inhibition;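 note: spheroids exposed to compounds for 7 days before read-out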;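 for viability, T/C: luminescence used as a proxy for viable cells; 100% = DMSO vehicle control viability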
Conditions: spheroids with HUVEC and MSC; for viability, T/C: stronger effect = lower value
Text: Multicellular complex tumor spheroid response to DNA repair inhibitors in combination with DNA-damaging drugs
This study explores the anticancer activities of DNA-damaging drugs and inhibitors of DNA damage repair, both as single agents and in combinations. Complex tumor spheroids comprised of malignant cells, endothelial cells and mesenchymal stem cells served as an in vitro model for human solid tumors. This model system incorporates physiologically relevant features and patient-derived or established malignant cell lines with clinically relevant genetic alterations from many tumor types. Twenty-six patient-derived or established malignant cell lines were evaluated representing sarcoma, melanoma, small cell lung cancer (SCLC), non-small cell lung cancer (NSCLC), as well as bladder, ovarian and pancreatic cancers. The concentration ranges selected for each drug and investigational agent were based upon clinically achievable concentrations if the clinical Cmax of the agent was known.
Compounds. The drugs and compounds olaparib (NSC753686), talazoparib (NSC767125), berzosertib (NSC777718), elimusertib (NSC800525), nedisertib (NSC802822), VX-984 (NSC792969), AZD-1390 (NSC803789), temozolomide (NSC362856), topotecan (NSC609699), trabectedin (NSC813783), staurosporine (NSC755774), and gemcitabine (NSC613327) were obtained from the National Cancer Institute (NCI) Developmental Therapeutics Program Chemical Repository. The FDA-approved anticancer drug set is available from the Developmental Therapeutics Program at https://dtp.cancer.gov/organization/dscb/obtaining/available_plates.htm. […] The stock solutions were prepared in dimethyl sulfoxide (DMSO, Sigma-Aldrich, St. Louis, MO, cat. D2650) at 400-fold the tested concentration and stored at -70 degrees C. Prior to their use, the stock solutions were diluted in fresh medium and the final DMSO concentration in the assay was 0.25% (v/v). All drugs and investigational agents were tested over a range starting from a high concentration at or near the clinical Cmax and decreasing in half-log increments. If the clinical Cmax for an agent had not been determined, the highest concentration tested was 10 microM.
Cell Lines. The patient-derived cancer cell (PDC) lines: 156681-154-R-J1-PDC, 283228-195-R-J1-PDC, 287954-098-R-J1-PDC, 292921-168-R-J2-PDC, 349418-098-R-PDC, 425362-245-T-J1-PDC, 556581-035-R-J1-PDC, and BL0293-F563-PDC were received from the NCI Patient-Derived Models Repository (PDMR, https://pdmr.cancer.gov). The established cell lines HS-SY-2 (RRID:CVCL_8719), MPNST, and SYO-1 (RRID:CVCL_7146) were obtained from the Sloan Kettering Institute. The alveolar soft parts sarcoma cell line ASPS-1 (RRID:CVCL_S738) was established at the NCI and grown from internal seed stocks. The following established cell lines were purchased from the American Type Culture Collection (ATCC, Manassas, VA): G-401 (ATCC, cat. CRL-1441, RRID:CVCL_0270), SW982 (ATCC, cat. HTB-93, RRID:CVCL_1734), VA-ES-BJ (ATCC, cat. CRL-2138, RRID:CVCL_1785), NCI-H719 (ATCC, cat. CRL-5837, RRID:CVCL_1582), NCI-H196 (ATCC, cat. CRL-5823, RRID:CVCL_1509), NCI-H841 (ATCC, cat. CRL-5845, RRID:CVCL_1595), NCI-H1618 (ATCC, cat. CRL-5879, RRID:CVCL_1480), NCI-H1876 (ATCC, cat. CRL-5902, RRID:CVCL_1503), DMS 114 (ATCC, cat. CRL-2066; RRID:CVCL_1174), NCI-H211 (ATCC, cat. CRL-5824; RRID:CVCL_1529), and SW 1271 (ATCC, cat. CRL-2177, RRID:CVCL_1716). The small cell lung cancer cell line COR-L88 was purchased from Sigma-Aldrich (cat. 92031917-1VL, RRID:CVCL_1141). The non-small cell lung cancer cell lines NCI-H226 (RRID:CVCL_1544) and NCI-H322M (RRID:CVCL_1557) were established at the NCI and grown from internal seed stocks. Pooled donor human umbilical vein endothelial cells (HUVEC, Lonza, cat. CC-2519) and human mesenchymal stem cells (hMSC, Lonza, cat. PT-2501) were purchased from Lonza (Walkersville, MD).
Cell Culture. All cells were maintained in an incubator at 37 degrees C and 5% CO2 with 95% humidity. […]

## COc1cc(C)[nH]c(=O)c1CN1CCc2c(Cl)cc(C(OC)C3COC3)c(Cl)c2C1=O (configuration not stated)
Compound 0.0316 µM
  viability, T/C: 99.2% and 104% and 106%
Compound 0.1 µM
  viability, T/C: 92.3% and 96.3% and 96.5%
Compound 0.316 µM
  viability, T/C: 84.5% and 87.3% and 86.1%
Compound 1 µM
  viability, T/C: 78% and 79.3% and 78.8%
Compound 3.16 µM
  viability, T/C: 72.8% and 77.8% and 73.3%
Compound 10 µM
  viability, T/C: 72.2% and 72.6% and 72.4%
Curve of compound
  IC50: > 10000 nM

## Cn1ncnc1[C@H]1c2n[nH]c(=O)c3cc(F)cc(c23)N[C@@H]1c1ccc(F)cc1 + CC[C@@]1(O)C(=O)OCc2c1cc1n(c2=O)Cc2cc3c(CN(C)C)c(O)ccc3nc2-1
Curve of first compound, second compound 0.003 µM
  IC50: 178 nM
Curve of first compound, second compound 0.00949 µM
  IC50: < 9.49 nM
Curve of first compound, second compound 0.03 µM
  IC50: < 9.49 nM
Curve of first compound, second compound 0.0949 µM
  IC50: < 9.49 nM
Curve of first compound, second compound 0.3 µM
  IC50: < 9.49 nM
Second compound 0.003 µM, first compound 0.00949 µM
  viability, T/C: 80.7%
Second compound 0.003 µM, first compound 0.03 µM
  viability, T/C: 72.9%
Second compound 0.003 µM, first compound 0.0949 µM
  viability, T/C: 62%
Second compound 0.003 µM, first compound 0.3 µM
  viability, T/C: 38.9%
Second compound 0.003 µM, first compound 0.949 µM
  viability, T/C: 25.2%
Second compound 0.003 µM, first compound 3 µM
  viability, T/C: 8.5%
Second compound 0.00949 µM, first compound 0.00949 µM
  viability, T/C: 50.9%
Second compound 0.00949 µM, first compound 0.03 µM
  viability, T/C: 37.5%
Second compound 0.00949 µM, first compound 0.0949 µM
  viability, T/C: 32.6%
Second compound 0.00949 µM, first compound 0.3 µM
  viability, T/C: 25.3%
Second compound 0.00949 µM, first compound 0.949 µM
  viability, T/C: 16.4%
Second compound 0.00949 µM, first compound 3 µM
  viability, T/C: 9.08%
Second compound 0.03 µM, first compound 0.00949 µM
  viability, T/C: 18.6%
Second compound 0.03 µM, first compound 0.03 µM
  viability, T/C: 18.6%
Second compound 0.03 µM, first compound 0.0949 µM
  viability, T/C: 16.2%
Second compound 0.03 µM, first compound 0.3 µM
  viability, T/C: 14%
Second compound 0.03 µM, first compound 0.949 µM
  viability, T/C: 10%
Second compound 0.03 µM, first compound 3 µM
  viability, T/C: 4.96%
Second compound 0.0949 µM, first compound 0.00949 µM
  viability, T/C: 12.8%
Second compound 0.0949 µM, first compound 0.03 µM
  viability, T/C: 10.6%
Second compound 0.0949 µM, first compound 0.0949 µM
  viability, T/C: 10.9%
Second compound 0.0949 µM, first compound 0.3 µM
  viability, T/C: 10.4%
Second compound 0.0949 µM, first compound 0.949 µM
  viability, T/C: 6.74%
Second compound 0.0949 µM, first compound 3 µM
  viability, T/C: 3.77%
Second compound 0.3 µM, first compound 0.00949 µM
  viability, T/C: 7.76%
Second compound 0.3 µM, first compound 0.03 µM
  viability, T/C: 7.9%
Second compound 0.3 µM, first compound 0.0949 µM
  viability, T/C: 7.53%
Second compound 0.3 µM, first compound 0.3 µM
  viability, T/C: 5.94%
Second compound 0.3 µM, first compound 0.949 µM
  viability, T/C: 5.76%
Second compound 0.3 µM, first compound 3 µM
  viability, T/C: 2.99%
